In PMC11488110 (Theranostics, 2024):

Columns and labels:
CYP2C9 = molecular target: T1, CYP2C9 (Homo sapiens, UniProt P11712); experiment: CYP inhibition assay, human liver microsomes; type: in vitro ADME
T1 construct: performed using 0.25 mg/mL human liver microsomes; from tissue; host or cells: human liver microsomes
Method: (§1) All incubations were performed in duplicate, and the mean values were used for analysis. Cocktail incubations were carried out using […] probe substrates of CYP1A2, CYP2C9, CYP2C19, CYP2D6, and CYP3A4: phenacetin, tolbutamide, mephenytoin, dextromethorphan and midazolam respectively, followed by tandem mass spectrometry. Briefly, an incubation reaction was performed using 0.25 mg/mL human liver microsomes in a final incubation volume of 100 μL. The incubation medium contained 100 mM phosphate buffer (pH 7.4) and probe substrates. The incubation mixture containing various inhibitors (10 μM) was pre-incubated for 5 min. After pre-incubation, an NADPH-regenerating system was added. After incubation at 37 °C for 15 min, the reaction was stopped by placing the incubation tubes on ice and adding 40 μL of ice-cold acetonitrile. The incubation mixtures were centrifuged at 10,000 g and 4 °C for 5 min. Aliquots of the supernatant were injected onto an LC-MS/MS system. The CYP-mediated activities in the presence of inhibitors were expressed as a percentage of the corresponding control value.
(§2) Ta b l e S2 . CYP inhibition, microsomal stability, and hERG in hibition of 5a .
(§3) CYP inhibitiona Microsomal stabilityb
(§4) ( % of c ont rol ac ti vit y) (% of remaining compound) hERG inhibitionc (IC50, μ M) […]
(§5) aCytochrome P450 (CYP450) enzyme activity was measured by incubating CYP450 enzyme isotype-specific substrates and liver microsomes in the presence of the test compound (10 μM) for 15 min. Data are expressed as percent of CYP enzyme activity relative to that of t he v ehicle-treated control. […]
(§6) a- cThe results of these three assays were obtained through the in vitro ADME/Tox study service of KMEDIhub, a contract research organization (CRO). The reported measurements are the mean of […]

CYP2C19 = molecular target: T2, CYP2C19 (Homo sapiens, UniProt P33261); experiment: CYP inhibition assay, human liver microsomes; type: in vitro ADME
T2 construct: performed using 0.25 mg/mL human liver microsomes; from tissue; host or cells: human liver microsomes
T2 sequence (P33261 whole entry): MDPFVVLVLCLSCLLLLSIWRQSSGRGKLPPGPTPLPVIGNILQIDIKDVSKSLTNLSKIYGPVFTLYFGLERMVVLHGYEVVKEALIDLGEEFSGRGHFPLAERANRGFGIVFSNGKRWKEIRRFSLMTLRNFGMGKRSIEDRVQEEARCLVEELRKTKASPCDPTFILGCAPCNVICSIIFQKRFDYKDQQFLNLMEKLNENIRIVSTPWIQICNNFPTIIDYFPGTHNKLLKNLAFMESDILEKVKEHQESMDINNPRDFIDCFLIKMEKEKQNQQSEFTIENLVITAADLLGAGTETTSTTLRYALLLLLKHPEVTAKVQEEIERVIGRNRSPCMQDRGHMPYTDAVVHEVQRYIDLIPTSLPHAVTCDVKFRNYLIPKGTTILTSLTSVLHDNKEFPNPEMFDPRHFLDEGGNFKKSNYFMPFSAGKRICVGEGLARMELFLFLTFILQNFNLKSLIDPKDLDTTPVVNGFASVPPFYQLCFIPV
Method: as §1, §2, §3, §4, §5, §6

CYP1A2 = molecular target: T3, CYP1A2 (Homo sapiens, UniProt P05177); experiment: CYP inhibition assay, human liver microsomes; type: in vitro ADME
T3 construct: performed using 0.25 mg/mL human liver microsomes; from tissue; host or cells: human liver microsomes
T3 sequence (P05177 1-516): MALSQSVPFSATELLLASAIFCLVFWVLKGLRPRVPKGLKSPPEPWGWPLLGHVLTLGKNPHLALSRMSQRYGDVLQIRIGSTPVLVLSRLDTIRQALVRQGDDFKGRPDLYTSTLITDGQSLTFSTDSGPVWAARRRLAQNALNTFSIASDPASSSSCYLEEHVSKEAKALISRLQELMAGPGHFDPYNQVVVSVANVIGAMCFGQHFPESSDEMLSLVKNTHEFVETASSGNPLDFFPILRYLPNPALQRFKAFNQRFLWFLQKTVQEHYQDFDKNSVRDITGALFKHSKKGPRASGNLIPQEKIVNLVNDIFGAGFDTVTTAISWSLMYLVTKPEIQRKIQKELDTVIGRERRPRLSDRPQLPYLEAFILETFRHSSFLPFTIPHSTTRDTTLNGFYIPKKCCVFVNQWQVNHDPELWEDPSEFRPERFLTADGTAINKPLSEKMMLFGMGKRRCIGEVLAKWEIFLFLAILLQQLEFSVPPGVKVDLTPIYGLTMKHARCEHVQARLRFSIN
Method: as §1, §2, §3, §4, §5, §6

CYP2D6 = molecular target: T4, CYP2D6 (Homo sapiens, UniProt P10635); experiment: CYP inhibition assay, human liver microsomes; type: in vitro ADME
T4 construct: performed using 0.25 mg/mL human liver microsomes; from tissue; host or cells: human liver microsomes
T4 sequence (P10635 whole entry): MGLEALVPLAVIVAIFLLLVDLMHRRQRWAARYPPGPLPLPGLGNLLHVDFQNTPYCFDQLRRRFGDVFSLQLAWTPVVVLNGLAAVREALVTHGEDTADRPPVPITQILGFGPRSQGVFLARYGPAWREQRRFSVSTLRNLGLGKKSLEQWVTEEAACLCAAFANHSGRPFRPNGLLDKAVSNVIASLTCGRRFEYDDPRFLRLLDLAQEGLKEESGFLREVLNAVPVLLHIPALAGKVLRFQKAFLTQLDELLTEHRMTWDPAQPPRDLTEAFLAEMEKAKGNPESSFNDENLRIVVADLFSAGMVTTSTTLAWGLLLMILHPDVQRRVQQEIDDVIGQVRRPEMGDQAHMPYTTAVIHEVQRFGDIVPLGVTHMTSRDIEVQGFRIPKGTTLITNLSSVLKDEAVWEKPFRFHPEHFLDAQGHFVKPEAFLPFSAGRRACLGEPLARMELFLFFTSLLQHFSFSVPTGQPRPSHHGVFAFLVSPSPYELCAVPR
Method: as §1, §2, §3, §4, §5, §6

CYP3A4 = molecular target: T5, CYP3A4 (Homo sapiens, UniProt P08684); experiment: CYP inhibition assay, human liver microsomes; type: in vitro ADME
T5 construct: performed using 0.25 mg/mL human liver microsomes; from tissue; host or cells: human liver microsomes
T5 sequence (P08684 whole entry): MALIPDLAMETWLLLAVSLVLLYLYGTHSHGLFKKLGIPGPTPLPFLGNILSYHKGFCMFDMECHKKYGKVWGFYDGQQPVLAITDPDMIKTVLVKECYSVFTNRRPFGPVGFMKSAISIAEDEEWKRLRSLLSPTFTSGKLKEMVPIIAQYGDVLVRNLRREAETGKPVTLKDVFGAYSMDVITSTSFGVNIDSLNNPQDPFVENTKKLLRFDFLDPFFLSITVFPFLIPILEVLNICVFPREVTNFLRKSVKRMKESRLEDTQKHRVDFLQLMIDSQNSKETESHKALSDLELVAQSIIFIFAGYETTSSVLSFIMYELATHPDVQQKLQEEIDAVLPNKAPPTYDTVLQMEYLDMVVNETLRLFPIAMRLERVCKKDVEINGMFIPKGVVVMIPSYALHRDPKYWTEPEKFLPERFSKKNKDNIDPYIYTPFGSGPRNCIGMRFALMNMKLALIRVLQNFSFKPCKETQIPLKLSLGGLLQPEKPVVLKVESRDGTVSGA
Method: as §1, §2, §3, §4, §5, §6

[1] = Metabolic stability assay in liver microsomes; type: in vitro ADME, mouse; settings: 1 μM, 30 min
Method: The metabolic stability assay was performed by incubation of human and selected animal liver microsomes (dog, rat, and mouse) with the test compound at a final concentration of 1 μM, in the presence of 0.5 mg/ml microsomal protein and NADPH-regeneration system, in a total volume of 100 μL phosphate buffer 100 mM (pH 7.4) at 37 °C. The incubation was started by introducing the NADPH-regeneration system and terminated by adding 40 μL of ice-cold acetonitrile at 0- and 30 min. Precipitated proteins were removed by centrifugation at 10,000 g and 4 °C for 5 min. Aliquots of the supernatant were injected onto an LC-MS/MS system. Incubations terminated prior to addition of the NADPH-regeneration system (time point, 0 min) were used as standards, defined as 100%. Percent of the parent compound remaining was calculated by comparing peak areas.
as §2, §3, §4
aCytochrome P450 (CYP450) enzyme activity was measured by incubating CYP450 enzyme isotype-specific substrates and liver microsomes in the presence of the test compound (10 μM) for 15 min. […]

[2] = system: PPARδ target genes (Pdk4, Angptl4, Cd36); experiment: qRT-PCR of PPARδ target genes in BV-2 microglia and mouse cortex; type: cell-based; settings: in vitro (BV-2, 24 h) and in vivo (cortex)
Method: Total RNA was isolated using TRIzol® (Invitrogen). Genomic DNA was removed and complementary DNA was synthesized from 500 ng total RNA using the iScript™ gDNA Clear cDNA Synthesis Kit (Bio-Rad). Real-time PCR was performed using the CFX Connect™ Real-Time PCR Detection System (Bio-Rad) using iQ™ SYBR® Green Supermix (Bio-Rad). The hypoxanthine phosphoribosyltransferase (Hprt) was used to normalize mRNA expression levels. Primer sequences used are described in Table S6.
Figure S8. 5a induces transcriptional activation of PPAR δ targ et genes in vitro an d in vivo.
(A-B) qRT-PCR anal ysi s of relative mRNA expression of Ppard and its downstream t arget genes, including Pdk4 , Angptl4, and Cd36. (A) BV-2 microglia were treated with 5a or […]
treated control (one -wa y ANOVA with Dunnett’s test). (B) Cortical homogenates from 10 - month- old WT and APP/PS1 mice treated with vehicle or 5a (30 m g/kg/day for 10 da ys, p.o ) were used for anal ysis (n = 3–4 mice per group). *P < 0.05 and ****P < 0.0001; n.s., not significant (one-wa y ANOVA with Tukey’s test). Hprt mRNA levels were used to normalize the expression of each gene.Data are p resented as mean ± SEM. GW: GW501516.
(1 picture or pasted object on this page, not shown here)

[3] = 10 μM, 15 min, human liver microsomes
[4] = stated for the five CYP subtypes, tested at 10 µM

T1 sequence (P11712 whole entry): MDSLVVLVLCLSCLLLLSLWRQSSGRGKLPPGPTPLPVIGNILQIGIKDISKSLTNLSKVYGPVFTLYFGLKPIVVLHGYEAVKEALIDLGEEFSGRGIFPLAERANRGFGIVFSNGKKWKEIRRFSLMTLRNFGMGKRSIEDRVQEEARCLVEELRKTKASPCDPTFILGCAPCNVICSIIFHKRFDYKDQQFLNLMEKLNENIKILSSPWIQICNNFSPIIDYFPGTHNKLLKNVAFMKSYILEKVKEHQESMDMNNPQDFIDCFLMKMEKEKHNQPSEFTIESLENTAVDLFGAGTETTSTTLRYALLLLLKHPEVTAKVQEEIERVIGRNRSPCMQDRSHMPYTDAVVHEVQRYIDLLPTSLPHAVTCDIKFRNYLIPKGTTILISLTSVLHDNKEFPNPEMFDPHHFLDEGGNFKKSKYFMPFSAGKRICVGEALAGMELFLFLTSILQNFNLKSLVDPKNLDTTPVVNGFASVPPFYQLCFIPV

## Cc1cc(SCc2[se]c(-c3ccc(C(F)(F)F)cc3)nc2C)ccc1OCC(=O)O [Compound 5a, {2-Methyl-4-[4-methyl-2-(4-trifluoromethyl-phenyl)-selenazol-5-yl-methylsulfanyl]-phenoxy}-acetic acid]
CYP2C9; [3]
  CYP inhibition 2C9 (% of control activity): 63.6 % of control activity
CYP2C9; [4]
  IC50: > 10 µM
CYP2C19; [3]
  CYP inhibition 2C19 (% of control activity): 88.6 % of control activity
CYP2C19; [4]
  IC50: > 10 µM
CYP1A2; [3]
  CYP inhibition 1A2 (% of control activity): 78.1 % of control activity
CYP1A2; [4]
  IC50: > 10 µM
CYP2D6; [3]
  CYP inhibition 2D6 (% of control activity): 92.1 % of control activity
CYP2D6; [4]
  IC50: > 10 µM
CYP3A4; [3]
  CYP inhibition 3A4 (% of control activity): 94.9 % of control activity
CYP3A4; [4]
  IC50: > 10 µM
[1]
  Microsomal stability, Mouse (% of remaining compound): 76.1 % of remaining compound
[2]
  Transcription of PPARδ target genes Pdk4, Angptl4, Cd36: induced transcriptional activation
